pEC50, pIC50: −log10 of the molar value. Read-outs that look alike come from different tables or passages of the source.
Tests used:
[1] = molecular target: T1, recombinant human ghrelin receptor (HEK293/GRLN) (Homo sapiens, UniProt Q92847); experiment: Ghrelin inverse agonist potency (EC50) with IP-1 (IP-One HTRF) assay; type: cell-based; conditions: IP-1 assay
T1 construct: expressed in transfected cells
How it was run: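 IP-1 accumulation was measured by HTRF (IP1-d2/Tb-cryptate, 620/665 nm read after 1 hour at room temperature) following 1 hour of compound treatment at 37° C. Cells were HEK293 stably expressing human ghrelin receptor, plated a day earlier on Matrigel. Inverse agonist potency was reported as EC50.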

[2] = molecular target: T2, GHSR-1a (HEK293/GHSR1a cell line) (Homo sapiens, UniProt Q92847); experiment: Ghrelin agonist potency (EC50) with calcium FLIPR assay; type: cell-based
T2 construct: expressed in transfected cells; host or cells: HEK293/GHSR1a cell line
How it was run: (§1)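 The cells were plated a day ahead and loaded with a calcium-sensitive dye. Test compound was then added and incubated 15 min, followed by ghrelin. Antagonist potency was calculated from inhibition of the response to 10 nM ghrelin, and agonist potency from the calcium rise caused by compound alone.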

[3] = molecular target: T2, GHSR-1a (HEK293/GHSR1a cell line); experiment: Ghrelin antagonist potency (IC50) with calcium FLIPR assay, ghrelin 10 nM; type: cell-based
How it was run: as §1

[4] = Metabolic stability in human liver microsomes; type: in vitro ADME
How it was run: (§2)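 First, microsomes and compound are preincubated 5 min at 37 °C in pH 7.4 phosphate buffer. Next, an NADPH regenerating system starts the reaction. Then aliquots are quenched cold at 10, 30 and 90 min, centrifuged and analysed by LC-MS/MS.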

[5] = Metabolic stability in rat liver microsomes; type: in vitro ADME
Experimental: (§3) Metabolic Stability Study
(§4) The metabolic stability of compounds in human, dog, rat and mouse liver microsomes was performed according the experimental conditions reported below:
(§5) • a) Prepare the following 5 stock solutions: • 1. Test compound stock solutions: dilute 10 mM solution of dextromethorphan (Dtr) in DMSO, 10 mM solution of diphenhydramine (DPA) in DMSO, 10 mM solution of omeprazole (Ome) in DMSO, 10 mM solution of verapamil (Ver) in DMSO, and 10 mM of an inverse agonist compound in DMSO to 0.25 mM solution each with acetonitrile/water (70/30). • 2. Buffer: 100 mM potassium phosphate Buffer (PBS) at pH 7.4 • 3. Liver microsomes (20 mg/ml): Thaw in 37° C. water bath quickly • 4. 2000 μL: of NADPH regenerating system (1.3 mM). Place this system on ice before use:
(§6) • 5. […] The test compound concentration in the wells, measured by LC-MS/MS, represents the concentration at time=0. • f) To determine the test compound concentration when t≠0, pre-incubate the NADPH regenerating system and the incubation plate containing the remaining 320 μL of incubation mixture (microsomes protein and test compound) for 5 minutes at 37° C. • g) Start the incubation reaction by adding 80 μL NADPH regenerating system to each well containing the remaining 320 μL incubation mixture. • h) After 10 min., 30 min., and 90 min. of incubation at 37° C., transfer 100 μL of the incubation mixture (microsomes protein, test compound, and NADPH) into the wells of a stop plate pre-filled with 300 μL of the cold quench solution. Shake well. • i) Centrifuge the stop plate at 5000×g for 10 minutes. Collect and dilute the supernatant 3 times with distilled water. Sample and analyze the test compound concentration for all the wells by LC-MS/MS. Animal PK Studies via i.v. (intravenous), p.o. (orally) and s.c. (subcutaneous) administrations

[6] = Metabolic stability in mouse liver microsomes; type: in vitro ADME
How it was run: as §2

[7] = Metabolic stability in dog liver microsomes; type: in vitro ADME
Experimental: as §3, §4, §5, §6

[8] = ghrelin inverse agonist potency, read-out: Activity EC50
[9] = ghrelin agonist potency, read-out: Activity EC50/EMax
[10] = ghrelin antagonist potency, read-out: Activity IC50
[11] = HEK293/GRLN, read-out: Activity EC50 (ghrelin inverse agonist potency)
[12] = HEK293/GHSR1a, ghrelin 10 nM, read-out: Activity IC50 (ghrelin antagonist potency)
[13] = HEK293/GHSR1a, read-out: Activity EC50/EMax: EC50 (ghrelin agonist potency)

T1 sequence (Q92847 whole entry): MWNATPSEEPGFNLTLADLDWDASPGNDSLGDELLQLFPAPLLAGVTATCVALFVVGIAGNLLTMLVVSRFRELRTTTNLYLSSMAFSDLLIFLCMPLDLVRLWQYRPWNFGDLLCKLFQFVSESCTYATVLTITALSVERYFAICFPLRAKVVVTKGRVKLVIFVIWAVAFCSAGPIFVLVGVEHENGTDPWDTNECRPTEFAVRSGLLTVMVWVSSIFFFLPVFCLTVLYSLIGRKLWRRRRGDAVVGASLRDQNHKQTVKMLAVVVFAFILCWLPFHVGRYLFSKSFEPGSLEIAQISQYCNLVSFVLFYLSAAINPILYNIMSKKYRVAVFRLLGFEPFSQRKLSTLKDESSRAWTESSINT
T2 sequence (Q92847 whole entry): as above

SMILES | pEC50 [1, 8] | pEC50 [2, 9] | pIC50 [3, 10] | Metabolic Stability Study H = human [4] | Metabolic Stability Study R = rat [5] | pEC50 ([1]; inverse agonist potency, read-out: EC50 (Activity)) | Metabolic Stability Study M = mouse [6] [µL/min/mg] | pEC50 [1, 11] | pIC50 [3, 12] | Metabolic Stability Study D = dog [7] [µL/min/mg] | pEC50 [2, 13]
COc1cc(S(=O)(=O)Cc2ccc3c(c2)C(F)CNC3)ccc1NC(=O)N[C@H](C)c1cccc(Cl)c1Cl (stereo partly drawn) [H1543, 1-((R)-1-(2,3-dichlorophenyl)ethyl)-3-(4-(((4-fluoro-1,2,3,4-tetrahydroisoquinolin-6-yl)methyl)sulfonyl)-2-methoxyphenyl)urea] | 7.90 | < 4.52 | 7.80 | 46.8 µL/min/mg | 204.6 µL/min/mg | – | – | – | – | – | –
CC(NC(=O)Nc1ccc(S(=O)(=O)Cc2ccc3c(c2)CCNC3)cc1C(=O)O)c1ccccc1 (centres unmarked) [H1541, 2-(3-(1-phenylethyl)ureido)-5-(((1,2,3,4-tetrahydroisoquinolin-6-yl)methyl)sulfonyl)benzoic acid] | 8.01 | < 4.52 | 7.14 | H = <10 R = <10 μL/min/mg | H = <10 R = <10 μL/min/mg | – | – | – | – | – | –
CC(NC(=O)Nc1ccc(S(=O)(=O)Cc2ccc3c(c2)CCNC3)cc1C(=O)O)c1cccc(Cl)c1Cl (centres unmarked) [H1542, 2-(3-(1-(2,3-dichlorophenyl)ethyl)ureido)-5-(((1,2,3,4-tetrahydroisoquinolin-6-yl)methyl)sulfonyl)benzoic acid] | 8.72 | < 4.52 | 8.77 | < 10 µL/min/mg | 13.3 µL/min/mg | – | – | – | – | – | –
C[C@H](NC(=O)Nc1ccc(S(=O)(=O)Cc2ccc3[nH]ccc3c2)cc1)c1cccc(Cl)c1Cl [H1142, (S)-1-(4-(((1H-indol-5-yl)methyl)sulfonyl)phenyl)-3-(1-(2,3-dichlorophenyl)ethyl)urea] | – | – | – | 114.9 µL/min/mg | 209.6 µL/min/mg | 6.36 | 151.4 | – | – | – | –
CC(NC(=O)Nc1ccc(S(=O)(=O)Cc2ccc3c(c2)CC(C)N(C)C3)cc1)c1cccc(Cl)c1Cl (centres unmarked) [H1380, 1-(1-(2,3-dichlorophenyl)ethyl)-3-(4-(((2,3-dimethyl-1,2,3,4-tetrahydroisoquinolin-6-yl)methyl)sulfonyl)phenyl)urea] | – | – | – | 137 µL/min/mg | – | – | 66.5 | 9.44 | 8.64 | 169.9 | –
COc1cc(S(=O)(=O)Cc2ccc3c(c2)C(F)CN(C)C3)ccc1NC(=O)N[C@H](C)c1cccc(Cl)c1Cl (stereo partly drawn) [H1544, 1-((R)-1-(2,3-dichlorophenyl)ethyl)-3-(4-(((4-fluoro-2-methyl-1,2,3,4-tetrahydroisoquinolin-6-yl)methyl)sulfonyl)-2-methoxyphenyl)urea] | 8.01 | < 4.52 | 7.39 | 323.3 µL/min/mg | 427.2 µL/min/mg | – | – | – | – | – | –
CC(NC(=O)Nc1ccc(S(=O)(=O)Cc2nc3c(s2)CN(C)CC3)cc1)c1cccc(Cl)c1Cl (centres unmarked) [H1379, 1-(1-(2,3-dichlorophenyl)ethyl)-3-(4-(((5-methyl-4,5,6,7-tetrahydrothiazolo[5,4-c]pyridin-2-yl)methyl)sulfonyl)phenyl)urea] | – | – | – | 261.6 µL/min/mg | – | – | > 500 | 8.84 | 7.35 | > 500 | < 4.52
CC(NC(=O)Nc1ccc(S(=O)(=O)Cc2cc(F)c3c(c2)CCN(C)C3)cc1)c1cccc(Cl)c1Cl (centres unmarked) [H1378, 1-(1-(2,3-dichlorophenyl)ethyl)-3-(4-(((8-fluoro-2-methyl-1,2,3,4-tetrahydroisoquinolin-6-yl)methyl)sulfonyl)phenyl)urea] | – | – | – | 151.7 µL/min/mg | – | – | 245.9 | 8.89 | 7.72 | 227.9 | < 4.52

Source: patent US10501479B2, “Benzenesulfonyl-asymmetric ureas and medical uses thereof” (HELSINN HEALTHCARE SA, priority 2016, dated 2019)
